Data as given in PubChem BioAssay AID330 (DTP/NCI, 2004).
“And” between values parts separate entries of the source, which are not always exact repeats. Equal entries are not always repeated. Toxic doses and inconclusive results are not listed. The calls were made as follows: active = survival T/C of 150% or more; inactive = T/C below 125% in these data.

Test system: P388 leukemia ip, CD2F1 mice, survival T/C
Test: NCI In Vivo Anticancer Drug Screen. Data for tumor model P388 Leukemia (intraperitoneal) in CD2F1 (CDF1) mice
Conditions: endpoint: median survival time, higher = longer survival
Procedure, shortened: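 Mice carrying the transplanted tumor received test compound or vehicle. Survival was recorded in each group, and the value is the treated-group measurement divided by that of the vehicle-treated control group.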

[1] = dose: 1.56 mg/kg/injection, schedule: Q01DX009 (ip), vehicle: saline
[2] = dose: 100.0 mg/kg/injection, schedule: Q04DX002 (ip), vehicle: saline
[3] = dose: 200.0 mg/kg/injection, schedule: Q04DX002 (ip), vehicle: saline
[4] = dose: 400.0 mg/kg/injection, schedule: Q04DX002 (ip), vehicle: saline
[5] = dose: 50.0 mg/kg/injection, schedule: Q01DX005 (ip), vehicle: saline with Tween-80
[6] = dose: 100.0 mg/kg/injection, schedule: Q01DX005 (ip), vehicle: saline with Tween-80
[7] = dose: 200.0 mg/kg/injection, schedule: Q01DX005 (ip), vehicle: saline with Tween-80
[8] = dose: 50.0 mg/kg/injection, schedule: Q01DX005 (ip), vehicle: Klucel (hydroxypropylcellulose) (HPC)
[9] = dose: 100.0 mg/kg/injection, schedule: Q01DX005 (ip), vehicle: Klucel (hydroxypropylcellulose) (HPC)
[10] = dose: 200.0 mg/kg/injection, schedule: Q01DX005 (ip), vehicle: Klucel (hydroxypropylcellulose) (HPC)
[11] = dose: 60.0 mg/kg/injection, schedule: Q01DX005 (ip), vehicle: saline
[12] = dose: 120.0 mg/kg/injection, schedule: Q01DX005 (ip), vehicle: saline
[13] = dose: 240.0 mg/kg/injection, schedule: Q01DX005 (ip), vehicle: saline

Measured: T/C

COC(=O)C(CS[C@@H]1CCCC[C@@H]1O)NC(C)=O (stereo partly drawn)
inactive: dose: 50.0 mg/kg/injection, schedule: Q01DX005 (ip), vehicle: suspension in saline 100 % of control | dose: 100.0 mg/kg/injection, schedule: Q01DX005 (ip), vehicle: suspension in saline 99 % of control | dose: 200.0 mg/kg/injection, schedule: Q01DX005 (ip), vehicle: suspension in saline 95 % of control

CC(=O)Oc1cc2c3c(c1)CCCN3CCC2
inactive: dose: 1.25 mg/kg/injection, schedule: Q04DX003 (ip), vehicle: saline with Tween-80 91 % of control | dose: 2.5 mg/kg/injection, schedule: Q04DX003 (ip), vehicle: saline with Tween-80 104 % of control | dose: 5.0 mg/kg/injection, schedule: Q04DX003 (ip), vehicle: saline with Tween-80 100 % of control

CC(C)[CH2][Sn](=[O])[c]1ccccc1
inactive: dose: 0.39 mg/kg/injection, schedule: Q01DX009 (ip), vehicle: saline 88 % of control | dose: 0.79 mg/kg/injection, schedule: Q01DX009 (ip), vehicle: saline 87 % of control | [1] 95 % of control

CN(C(=O)C(=S)c1ccccc1)c1ccccc1
inactive: [2] 104 % of control | [3] 119 % of control | [4] 117 % of control

COC(=O)c1c(-c2ccc(OC)c(OC)c2)cn(C)c1C
inactive: [5] 104 % of control | [6] 96 % of control | [7] 91 % of control

CC(=O)[C@]1(O)Cc2c(O)c3c(c(O)c2C(OC2CC(N=[N+]=[N-])C(O)[C@@H](CN=[N+]=[N-])O2)C1)C(=O)c1c(O)cccc1C3=O (stereo partly drawn)
inactive: dose: 3.13 mg/kg/injection, schedule: Q04DX003 (ip), vehicle: saline with Tween-80 93 % of control | dose: 6.25 mg/kg/injection, schedule: Q04DX003 (ip), vehicle: saline with Tween-80 93 % of control | dose: 12.5 mg/kg/injection, schedule: Q04DX003 (ip), vehicle: saline with Tween-80 96 % of control | dose: 25.0 mg/kg/injection, schedule: Q04DX003 (ip), vehicle: saline with Tween-80 96 % of control | dose: 50.0 mg/kg/injection, schedule: Q04DX003 (ip), vehicle: saline with Tween-80 91 % of control | dose: 100.0 mg/kg/injection, schedule: Q04DX003 (ip), vehicle: saline with Tween-80 105 % of control

COc1ccc(/C=N/NC(=O)CNC(=O)Nc2n[nH]c(=S)s2)cc1
inactive: [8] 100 % of control | [9] 104 % of control | [10] 100 % of control

Cc1nccc2c(C)c3c(cc12)c1ccccc1n3C
inactive: dose: 5.0 mg/kg/injection, schedule: Q01DX005 (ip), vehicle: saline 107 % of control | dose: 10.0 mg/kg/injection, schedule: Q01DX005 (ip), vehicle: saline 107 % of control | dose: 20.0 mg/kg/injection, schedule: Q01DX005 (ip), vehicle: saline 99 % of control

O=C(CNC(=O)OCc1ccccc1)OC(=O)CNC(=O)OCc1ccccc1
inactive: dose: 100.0 mg/kg/injection, schedule: Q04DX002 (ip), vehicle: Klucel (hydroxypropylcellulose) (HPC) 96 % of control | dose: 200.0 mg/kg/injection, schedule: Q04DX002 (ip), vehicle: Klucel (hydroxypropylcellulose) (HPC) 93 % of control | dose: 400.0 mg/kg/injection, schedule: Q04DX002 (ip), vehicle: Klucel (hydroxypropylcellulose) (HPC) 93 % of control

CC1CCC(OC(=O)NCCCl)CC1 (stereo not drawn)
inactive: [8] 97 % of control | [9] 96 % of control | [10] 101 % of control

O=C(N/N=C/c1ccccn1)c1ccccc1[O-].O=C(N/N=C/c1ccccn1)c1ccccc1[O-].[Co+2]
inactive: [8] 113 % of control | [9] 117 % of control

O=c1[nH]ccc2nc(-c3ccccc3)cn12
inactive: dose: 100.0 mg/kg/injection, schedule: Q04DX003 (ip), vehicle: Klucel (hydroxypropylcellulose) (HPC) 106 % of control | dose: 200.0 mg/kg/injection, schedule: Q04DX003 (ip), vehicle: Klucel (hydroxypropylcellulose) (HPC) 104 % of control | dose: 400.0 mg/kg/injection, schedule: Q04DX003 (ip), vehicle: Klucel (hydroxypropylcellulose) (HPC) 105 % of control

COc1cc(OC)c(/C=N/Nc2cc(C)c3ccc(OC)cc3n2)c(OC)c1
inactive: [8] 105 % of control | [9] 113 % of control | [10] 114 % of control

COc1cc2c(CCNC(C)=O)csc2cc1Cl
inactive: dose: 60.0 mg/kg/injection, schedule: Q01DX005 (ip), vehicle: saline with Tween-80 97 % of control | dose: 120.0 mg/kg/injection, schedule: Q01DX005 (ip), vehicle: saline with Tween-80 99 % of control | dose: 240.0 mg/kg/injection, schedule: Q01DX005 (ip), vehicle: saline with Tween-80 105 % of control

CCOC(=O)OCC1OC(OC(C)=O)C(OC(C)=O)C(OC(=O)OCC)C1OC(=O)OCC (stereo not drawn)
inactive: dose: 12.5 mg/kg/injection, schedule: Q01DX009 (ip), vehicle: water 95 % of control | dose: 25.0 mg/kg/injection, schedule: Q01DX009 (ip), vehicle: water 99 % of control | dose: 50.0 mg/kg/injection, schedule: Q01DX009 (ip), vehicle: water 91 % of control | dose: 100.0 mg/kg/injection, schedule: Q01DX009 (ip), vehicle: water 99 % of control | dose: 200.0 mg/kg/injection, schedule: Q01DX009 (ip), vehicle: water 90 % of control

NC(=S)N/N=C/c1nc2ccccc2c(=O)n1-c1ccc(Cl)cc1
inactive: dose: 100.0 mg/kg/injection, schedule: Q04DX002 (ip), vehicle: saline with Tween-80 104 % of control | dose: 200.0 mg/kg/injection, schedule: Q04DX002 (ip), vehicle: saline with Tween-80 95 % of control | dose: 400.0 mg/kg/injection, schedule: Q04DX002 (ip), vehicle: saline with Tween-80 98 % of control

CC(O)C1OC(O)C2OC(C)(C)OC12 (stereo not drawn)
inactive: [11] 98 % of control | [12] 95 % of control | [13] 98 % of control

C[N+]1(C)CCC2=CC(=O)CC(c3ccccc3)C2C1 (stereo not drawn)
inactive: [5] 100 % of control | [6] 98 % of control | [7] 103 % of control

CCCCNC(=O)C(N)CON (stereo not drawn)
inactive: dose: 50.0 mg/kg/injection, schedule: Q01DX005 (ip), vehicle: saline 106 % of control | dose: 100.0 mg/kg/injection, schedule: Q01DX005 (ip), vehicle: saline 113 % of control | dose: 200.0 mg/kg/injection, schedule: Q01DX005 (ip), vehicle: saline 106 % of control

CCOC(=O)CCc1cnc[nH]1
inactive: [11] 108 % of control | [12] 106 % of control | [13] 98 % of control

CC(c1ccccc1)[P+](c1ccccc1)(c1ccccc1)c1ccccc1 (stereo not drawn)
inactive: dose: 0.78 mg/kg/injection, schedule: Q01DX009 (ip), vehicle: saline 112 % of control and 93 % of control | [1] 109 % of control and 118 % of control | dose: 3.13 mg/kg/injection, schedule: Q01DX009 (ip), vehicle: saline 118 % of control and 121 % of control

ClC(Cl)(Cl)C1OCCOCCO1
inactive: dose: 100.0 mg/kg/injection, schedule: Q01DX009 (ip), vehicle: saline with Tween-80 109 % of control | dose: 200.0 mg/kg/injection, schedule: Q01DX009 (ip), vehicle: saline with Tween-80 100 % of control | dose: 400.0 mg/kg/injection, schedule: Q01DX009 (ip), vehicle: saline with Tween-80 116 % of control

O=C1c2ccccc2C(=O)c2c1ccc1c2OCO1
inactive: dose: 5.0 mg/kg/injection, schedule: Q01DX005 (ip), vehicle: Klucel (hydroxypropylcellulose) (HPC) 96 % of control | dose: 10.0 mg/kg/injection, schedule: Q01DX005 (ip), vehicle: Klucel (hydroxypropylcellulose) (HPC) 87 % of control | dose: 20.0 mg/kg/injection, schedule: Q01DX005 (ip), vehicle: Klucel (hydroxypropylcellulose) (HPC) 86 % of control and 88 % of control | dose: 40.0 mg/kg/injection, schedule: Q01DX005 (ip), vehicle: Klucel (hydroxypropylcellulose) (HPC) 95 % of control

Cc1nc(Cl)c2c3c(sc2n1)CCCC3
inactive: dose: 18.75 mg/kg/injection, schedule: Q01DX001 (ip), vehicle: saline sonified 95 % of control | dose: 37.5 mg/kg/injection, schedule: Q01DX001 (ip), vehicle: saline sonified 100 % of control | dose: 75.0 mg/kg/injection, schedule: Q01DX001 (ip), vehicle: saline sonified 100 % of control

O=C1C(=Cc2ccc(O)cc2)C(=O)c2ccccc21
inactive: [2] 97 % of control | [3] 99 % of control | [4] 106 % of control

COc1ccc(C2=CC(c3ccc(OC)cc3)(c3ccc(C(F)(F)F)cc3)C=C(c3ccc(OC)cc3)S2)cc1
inactive: dose: 50.0 mg/kg/injection, schedule: Q01DX009 (ip), vehicle: Klucel (hydroxypropylcellulose) (HPC) 97 % of control | dose: 100.0 mg/kg/injection, schedule: Q01DX009 (ip), vehicle: Klucel (hydroxypropylcellulose) (HPC) 93 % of control | dose: 200.0 mg/kg/injection, schedule: Q01DX009 (ip), vehicle: Klucel (hydroxypropylcellulose) (HPC) 90 % of control
